Test results published in publication PMC7442650, “A machine learning-based chemoproteomic approach to identify drug targets and binding sites in complex proteomes” (Nature Communications, 2020).
“And” between values parts separate entries of the source, which are not always exact repeats. Equal entries are not always repeated. Where two headings read alike, the source gives them in different places.

Key:
[1] = target: MAPK2K1 (MAP2K1) (Homo sapiens, UniProt Q02750); test: LiP-Quant, HeLa lysate; format: binding
[2] = target: SRPK1_HUMAN (SRSF protein kinase 1) (Homo sapiens, UniProt Q96SB4); test: LiP-Quant, HeLa lysate; format: binding
[3] = test system: KS6A2_HUMAN (Ribosomal protein S6 kinase alpha-2)
[4] = target: KS6A3_HUMAN (Ribosomal protein S6 kinase alpha-3) (Homo sapiens, UniProt P51812); test: LiP-Quant, HeLa lysate; format: binding
[5] = target: EIF2AK2 (Homo sapiens, UniProt P19525); test: Deep LiP-Quant (4h gradient), HeLa lysate; format: binding
[6] = target: RPS6KA3 (Homo sapiens, UniProt P51812); test: Deep LiP-Quant (4h gradient), HeLa lysate; format: binding
[7] = target: CAMK2G (KCC2G_HUMAN, Calcium/calmodulin-dependent protein kinase type II subunit gamma) (Homo sapiens, UniProt Q13555); test: LiP-Quant, HeLa lysate; format: binding; conditions: staurosporine sheet; peptide NLINQMLTINPAK; LIPRank 5
[8] = target: CAMK2G (Calcium/calmodulin-dependent protein kinase type II subunit gamma, KCC2G_HUMAN) (Homo sapiens, UniProt Q13555); test: LiP-Quant, HeLa lysate; format: binding; conditions: peptide NLINQMLTINPAK
[9] = target: NEK9 (Homo sapiens, UniProt Q8TD19); test: Deep LiP-Quant (4h gradient), HeLa lysate
[10] = target: Bcin06g02870 (predicted casein kinase I homolog) (Botrytis cinerea, UniProt A0A384JJQ0); test: LiP-Quant, Botrytis cinerea lysate; format: binding
Excerpt: Given its abilities to identify and characterize drug targets and their binding sites, we applied LiP-Quant to a research fungicide compound with an unknown target (BAYE-004, Fig. 4a).

[11] = test system: His-tagged Bcin06g02870; test: Cellular thermal shift assay (CETSA), western blot; format: cell-based, Botrytis cinerea; conditions: in vivo treatment, 56 °C
Description: Botrytis cinerea BO47 (CK1 His-Tagged) cell suspension was adjusted to 1 × 10^6 sp/ml GYPm and incubated for 24 h at 21 °C (110 rpm). […] Cells were harvested by filtration (100 µm) and rinsed with 15 ml of ice-cold HEPES buffer (0.1 M HEPES, 50 mM NaCl, pH 7.5). Harvested mycelium was resuspended in 3.5 ml HEPES buffer and kept on ice. 500 µl of each concentration was transferred to a 2 ml Eppendorf tube and heated to 56 °C on a thermoshaker for 3 min, an additional aliquot from each concentration was left unheated. After heating, cells were kept on ice for 3 min, snap frozen in liquid nitrogen, lyophilized overnight and then stored at −80 °C until protein extraction.
Lyophilized mycelium was lysed using a Retsch mixer mill (MM 400) with 3 mm tungsten carbide beads (30 Hz for 3 s, two cycles), then 500 µl of cold protein extraction buffer (50 mM HEPES, 50 mM NaCl, 0.4% NP-40) was added. Lysate was incubated for 10 min at 25 °C, centrifuged (10 min, 14,000g) and the supernatant was retained. The lysate was further centrifuged (20 min, 73,400g) to eliminate insoluble proteins. The supernatant was collected, and protein concentration was determined using the Qubit protein assay kit (#Q33211) and stored at −20 °C.
Target engagement was assessed by western blot. […] The membrane (target protein) and gel (loading control) were imaged using a ChemiDocXRS camera and quantified using ImageJ[43]. […]

[12] = target: T1, Botrytis cinerea MBP-CK1 recombinant enzyme (MBP-tagged Bcin06g02870) (Botrytis cinerea, UniProt A0A384JJQ0); test: CK1 kinase assay (LANCE Ultra TR-FRET); format: biochemical; conditions: for % Inhibition of CK-1: rep 1, rep2
T1 sequence (A0A384JJQ0 1-368): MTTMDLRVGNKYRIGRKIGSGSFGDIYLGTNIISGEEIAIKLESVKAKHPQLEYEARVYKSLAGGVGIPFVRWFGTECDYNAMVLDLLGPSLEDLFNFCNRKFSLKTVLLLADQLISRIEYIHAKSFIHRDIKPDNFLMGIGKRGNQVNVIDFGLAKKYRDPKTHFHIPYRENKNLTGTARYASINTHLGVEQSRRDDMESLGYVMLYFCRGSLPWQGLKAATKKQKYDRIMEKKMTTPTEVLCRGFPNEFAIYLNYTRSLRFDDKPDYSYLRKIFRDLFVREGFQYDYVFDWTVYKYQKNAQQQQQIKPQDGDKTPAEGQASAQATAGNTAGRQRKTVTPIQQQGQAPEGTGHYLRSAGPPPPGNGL
Excerpt: We calculated the center of mass of the #6 and #7 ranking LiP-Quant peptides to estimate the position of the BAYE-004 binding site within Bcin06g02870. Here we considered two LiP-Quant peptides for the center of mass calculation, as there were only two high scoring LiP-Quant peptides that could be used. The putative binding site of the drug maps in the ATP-binding site of Bcin06g02870, which is also a common binding site for kinase inhibitors (Fig. 4e, Supplementary Data 3). Finally, we performed a LANCE Ultra kinase assay (Perkin Elmer) to measure the phosphorylation activity on a peptide substrate of a purified MBP-tagged version of Bcin06g02870.
The LANCE Ultra time resolved fluorescence resonance energy transfer (Tr-FRET) kinase assay (Perkin Elmer, #TRF0300-C) protocol was used according to manufacturer’s instructions with adaptations made for the following conditions. […] The reaction was performed in duplicates in the dark at 30 °C for 90 min. Plates were read in a Victor2 Perkin plate reader (excitation 340 nm/emission 665 nm).

[13] = target: Bcin16g04330 (predicted glycogen synthase kinase-3β homolog) (Botrytis cinerea, UniProt A0A384K7E5); test: LiP-Quant, Botrytis cinerea lysate; conditions: read-out: extrapolated average EC50; top two ranking LiP-Quant peptides
[14] = test system: Botrytis cinerea; test: Cell viability (IC50) assay, inhibition of cell growth by optical density; conditions: three days, Rep 1-3
Description: Botrytis cinerea BO5.10 (2 × 10^3 cells/ml) mycelium in GYPm liquid media (200 µl) was cultured at 21 °C without shaking in a micro-titer plate. […] The culture was grown for three days at 21 °C after inoculation at which point the optical density was measured again. Inhibition of cell growth was calculated at each concentration.

[15] = peptide LPSGVFSL, MAP2K1 (Q02750)
[16] = peptide STAGNFLVNPLEPK, SRPK1 (Q96SB4)
[17] = protein level, experiment LiP-Quant
[18] = peptide VLGQGSFGK, RPS6KA3 (P51812)

Chain of KS6A3_HUMAN (Ribosomal protein S6 kinase alpha-3) (P51812 whole entry): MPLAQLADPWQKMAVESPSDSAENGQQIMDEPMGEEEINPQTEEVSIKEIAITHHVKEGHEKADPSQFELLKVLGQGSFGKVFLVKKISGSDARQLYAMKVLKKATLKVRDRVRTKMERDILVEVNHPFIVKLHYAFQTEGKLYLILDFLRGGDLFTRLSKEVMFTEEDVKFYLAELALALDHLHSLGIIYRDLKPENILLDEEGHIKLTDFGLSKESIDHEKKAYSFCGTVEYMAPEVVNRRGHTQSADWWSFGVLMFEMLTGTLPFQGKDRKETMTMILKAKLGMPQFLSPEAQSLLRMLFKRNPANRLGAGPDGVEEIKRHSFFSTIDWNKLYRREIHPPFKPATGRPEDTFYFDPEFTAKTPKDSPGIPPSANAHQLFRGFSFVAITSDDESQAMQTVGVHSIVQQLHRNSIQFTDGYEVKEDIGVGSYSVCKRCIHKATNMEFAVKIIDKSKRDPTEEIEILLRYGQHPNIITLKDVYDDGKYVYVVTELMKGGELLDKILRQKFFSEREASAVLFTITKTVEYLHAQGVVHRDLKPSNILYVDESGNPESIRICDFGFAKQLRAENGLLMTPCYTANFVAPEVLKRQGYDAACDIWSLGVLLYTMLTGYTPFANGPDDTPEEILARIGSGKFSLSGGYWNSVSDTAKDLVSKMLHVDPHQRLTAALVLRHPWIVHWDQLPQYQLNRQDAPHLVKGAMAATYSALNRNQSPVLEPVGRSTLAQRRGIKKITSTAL
Chain of CAMK2G (Calcium/calmodulin-dependent protein kinase type II subunit gamma, KCC2G_HUMAN) (Q13555 whole entry): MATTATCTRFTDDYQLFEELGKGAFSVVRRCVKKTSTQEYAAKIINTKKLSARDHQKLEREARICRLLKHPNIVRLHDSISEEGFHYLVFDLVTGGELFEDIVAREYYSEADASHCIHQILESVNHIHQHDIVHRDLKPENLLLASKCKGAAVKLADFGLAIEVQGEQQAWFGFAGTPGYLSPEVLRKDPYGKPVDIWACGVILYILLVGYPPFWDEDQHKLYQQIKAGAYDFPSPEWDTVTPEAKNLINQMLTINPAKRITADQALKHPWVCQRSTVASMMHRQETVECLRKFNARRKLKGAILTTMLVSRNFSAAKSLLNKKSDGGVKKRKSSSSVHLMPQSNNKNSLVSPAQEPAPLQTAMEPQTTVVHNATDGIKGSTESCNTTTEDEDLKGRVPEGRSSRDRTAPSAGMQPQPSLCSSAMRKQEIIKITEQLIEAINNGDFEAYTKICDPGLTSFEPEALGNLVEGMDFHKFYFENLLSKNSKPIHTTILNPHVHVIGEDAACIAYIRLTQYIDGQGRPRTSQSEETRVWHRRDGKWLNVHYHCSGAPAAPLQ
Chain of SRPK1_HUMAN (SRSF protein kinase 1) (Q96SB4 whole entry): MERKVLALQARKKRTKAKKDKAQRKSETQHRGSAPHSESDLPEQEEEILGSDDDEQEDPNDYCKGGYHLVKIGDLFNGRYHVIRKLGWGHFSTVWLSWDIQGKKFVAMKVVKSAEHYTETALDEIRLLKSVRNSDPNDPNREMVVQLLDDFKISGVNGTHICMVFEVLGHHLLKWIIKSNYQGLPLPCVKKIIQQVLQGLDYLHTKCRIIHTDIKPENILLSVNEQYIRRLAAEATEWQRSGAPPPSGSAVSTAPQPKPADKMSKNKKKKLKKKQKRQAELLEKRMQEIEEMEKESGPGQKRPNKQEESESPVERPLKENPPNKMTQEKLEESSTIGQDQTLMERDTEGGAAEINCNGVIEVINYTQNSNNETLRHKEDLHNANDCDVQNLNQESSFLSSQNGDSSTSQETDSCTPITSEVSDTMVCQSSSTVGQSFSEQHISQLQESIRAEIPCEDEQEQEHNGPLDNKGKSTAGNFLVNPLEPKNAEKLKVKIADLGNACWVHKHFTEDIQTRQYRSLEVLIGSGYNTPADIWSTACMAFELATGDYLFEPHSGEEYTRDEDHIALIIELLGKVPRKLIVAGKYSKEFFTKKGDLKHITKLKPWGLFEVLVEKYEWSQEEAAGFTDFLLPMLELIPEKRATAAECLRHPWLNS
Chain of MAPK2K1 (MAP2K1) (Q02750 whole entry): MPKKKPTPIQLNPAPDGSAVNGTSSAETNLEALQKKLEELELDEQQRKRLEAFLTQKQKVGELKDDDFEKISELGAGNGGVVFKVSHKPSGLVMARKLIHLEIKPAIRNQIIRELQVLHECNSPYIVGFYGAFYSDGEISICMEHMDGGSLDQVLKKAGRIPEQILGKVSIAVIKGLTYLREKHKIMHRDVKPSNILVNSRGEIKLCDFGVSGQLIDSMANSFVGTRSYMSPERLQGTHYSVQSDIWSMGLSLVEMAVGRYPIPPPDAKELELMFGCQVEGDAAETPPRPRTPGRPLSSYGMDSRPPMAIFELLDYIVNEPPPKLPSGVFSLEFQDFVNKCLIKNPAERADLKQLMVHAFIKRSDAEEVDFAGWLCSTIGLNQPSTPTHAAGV
Chain of RPS6KA3 (P51812 whole entry): as the sequence (P51812 whole entry) above
Chain of NEK9 (Q8TD19 whole entry): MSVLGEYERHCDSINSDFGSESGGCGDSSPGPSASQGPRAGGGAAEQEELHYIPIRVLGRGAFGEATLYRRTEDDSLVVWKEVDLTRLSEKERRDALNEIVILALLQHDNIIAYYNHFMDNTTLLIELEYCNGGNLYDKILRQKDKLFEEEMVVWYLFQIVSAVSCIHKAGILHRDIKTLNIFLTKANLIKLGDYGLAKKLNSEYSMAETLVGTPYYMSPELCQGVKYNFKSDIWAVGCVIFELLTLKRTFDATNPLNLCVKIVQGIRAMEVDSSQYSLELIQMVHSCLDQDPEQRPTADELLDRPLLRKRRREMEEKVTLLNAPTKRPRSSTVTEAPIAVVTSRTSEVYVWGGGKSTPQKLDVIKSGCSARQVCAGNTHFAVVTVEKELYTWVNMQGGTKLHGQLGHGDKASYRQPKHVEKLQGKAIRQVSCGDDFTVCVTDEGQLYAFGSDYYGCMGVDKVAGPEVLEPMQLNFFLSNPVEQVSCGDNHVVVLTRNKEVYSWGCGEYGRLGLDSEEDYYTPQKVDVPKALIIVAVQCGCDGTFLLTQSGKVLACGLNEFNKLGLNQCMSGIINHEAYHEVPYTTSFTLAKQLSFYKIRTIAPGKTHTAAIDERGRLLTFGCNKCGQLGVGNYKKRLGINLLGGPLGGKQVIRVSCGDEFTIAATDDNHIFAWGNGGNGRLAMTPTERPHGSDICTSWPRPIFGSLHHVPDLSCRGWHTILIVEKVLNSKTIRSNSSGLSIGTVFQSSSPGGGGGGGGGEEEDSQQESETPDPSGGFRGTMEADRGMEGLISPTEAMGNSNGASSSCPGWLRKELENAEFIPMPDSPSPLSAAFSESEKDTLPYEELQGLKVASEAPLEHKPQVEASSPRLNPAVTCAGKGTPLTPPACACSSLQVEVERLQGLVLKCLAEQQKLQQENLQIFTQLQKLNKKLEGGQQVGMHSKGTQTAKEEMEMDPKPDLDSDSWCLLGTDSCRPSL
Chain of EIF2AK2 (P19525 whole entry): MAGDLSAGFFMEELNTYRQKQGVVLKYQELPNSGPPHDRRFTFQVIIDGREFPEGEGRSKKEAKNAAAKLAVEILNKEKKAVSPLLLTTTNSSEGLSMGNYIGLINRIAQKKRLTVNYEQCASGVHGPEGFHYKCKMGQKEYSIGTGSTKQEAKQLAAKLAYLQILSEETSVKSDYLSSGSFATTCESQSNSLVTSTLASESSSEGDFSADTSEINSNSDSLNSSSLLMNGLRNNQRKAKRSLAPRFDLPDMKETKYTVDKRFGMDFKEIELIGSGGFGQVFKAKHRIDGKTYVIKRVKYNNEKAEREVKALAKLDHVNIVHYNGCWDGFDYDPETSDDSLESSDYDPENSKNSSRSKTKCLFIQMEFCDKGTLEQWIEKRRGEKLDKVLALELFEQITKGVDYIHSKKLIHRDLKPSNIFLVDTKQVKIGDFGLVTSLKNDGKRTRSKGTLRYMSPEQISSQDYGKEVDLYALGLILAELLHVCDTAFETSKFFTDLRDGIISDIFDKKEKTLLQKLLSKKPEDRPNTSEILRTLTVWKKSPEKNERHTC
Chain of Bcin16g04330 (predicted glycogen synthase kinase-3β homolog) (A0A384K7E5 1-398): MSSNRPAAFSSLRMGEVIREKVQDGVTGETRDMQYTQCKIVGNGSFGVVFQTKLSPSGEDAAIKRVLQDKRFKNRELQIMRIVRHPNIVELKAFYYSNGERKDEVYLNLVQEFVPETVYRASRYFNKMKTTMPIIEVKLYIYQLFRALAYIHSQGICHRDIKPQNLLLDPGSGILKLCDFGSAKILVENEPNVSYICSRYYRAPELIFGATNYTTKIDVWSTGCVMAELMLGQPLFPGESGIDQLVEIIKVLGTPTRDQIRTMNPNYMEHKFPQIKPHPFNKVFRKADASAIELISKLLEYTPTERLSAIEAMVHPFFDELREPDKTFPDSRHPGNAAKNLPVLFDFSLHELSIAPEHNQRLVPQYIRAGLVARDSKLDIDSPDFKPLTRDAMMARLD
Chain of CAMK2G (KCC2G_HUMAN, Calcium/calmodulin-dependent protein kinase type II subunit gamma) (Q13555 whole entry): as the sequence (Q13555 whole entry) above

**Q.** What does the source list for CN[C@@H]1C[C@H]2O[C@@](C)([C@@H]1OC)n1c3ccccc3c3c4c(c5c6ccccc6n2c5c31)C(=O)NC4 [Staurosporine]?
**A.** DRC [1, 15]: 0.9366; LIPRank [1, 15]: 2; LIPscore ([1]; peptide VSIAVIK (selumetinib sheet) or best peptide of the protein (Supp Data 7)): 2.822; LIPRank ([1]; peptide VSIAVIK (selumetinib sheet) or protein level (Supp Data 7)): 2; LIPscore ([1]; staurosporine sheet, peptide LPSGVFSL, LIPRank 2): 2.822; DRC [2, 16]: 0.9525; LIPRank [2, 16]: 1; LIPRank [2, 17]: 1; LIPscore [2, 17]: 3.113; LIPscore ([2]; staurosporine sheet, peptide […], LIPRank 1): 3.113; LIPscore [3, 17]: 2.777; LIPscore ([3]; staurosporine sheet, peptide […], LIPRank 3): 2.777; DRC [4, 18]: 0.9262; LIPRank [4, 18]: 4; LIPRank [4, 17]: 4; LIPscore [4, 17]: 2.665; LIPscore ([4]; staurosporine sheet, peptide VLGQGSFGK, LIPRank 4): 2.665; LiP Score ([5]; peptide IGDFGLVTSLK): 4.708; LIPRank ([5]; protein level): 2; LiP Score ([6]; peptide ADPSQFELLK): 4.635; LIPRank ([6]; protein level): 3; LIPscore [7]: 2.655; DRC [8]: 0.9333; LIPRank [8]: 5; LIPscore [8]: 2.655; LiP Score ([9]; peptide GAFGEATLYR): 4.511; LIPRank ([9]; protein level): 4

**Q.** CCC(=O)Nc1cc(-c2c(-c3ccc(F)cc3)nn3c2CCC3)ccn1 [BAYE-004] was tested. Which “EC50 lower than EC50 of the rest of the LiP-Quant peptides above the 1.5 threshold” value [10] did it give?
**A.** Its value is “approximately 1000 fold”.

**Q.** What about the EC50 ([10]; two peptides, LiP-Quant rank #6 and #7) of the same compound?
**A.** Its EC50 is 6 nM and 5 nM.

**Q.** And the “thermal stability upon treatment” value [11]?
**A.** Its value is “thermally stabilized”.

**Q.** And the “% Inhibition of CK-1” value ([12]; concentration 1,00E-04 (unit not given))?
**A.** The value was 92% and 90%.

**Q.** What about the “% Inhibition of CK-1” value ([12]; concentration 1,00E-05 (unit not given)) of the same compound?
**A.** Its value is 98% and 105%.

**Q.** And the “% Inhibition of CK-1” value ([12]; concentration 1,00E-06 (unit not given))?
**A.** Its value is 99% and 101%.

**Q.** What about the “% Inhibition of CK-1” value ([12]; concentration 1,00E-07 (unit not given)) of the same compound?
**A.** Its value is 84% and 91%.

**Q.** And the “% Inhibition of CK-1” value ([12]; concentration 1,00E-08 (unit not given))?
**A.** Its value is 53% and 50%.

**Q.** What about the “% Inhibition of CK-1” value ([12]; concentration 1,00E-09 (unit not given)) of the same compound?
**A.** Its value is 9%.

**Q.** And the IC50 ([12]; read-out: IC50 (% Inhibition of CK-1))?
**A.** The IC50 was 12.5 nM.

**Q.** What about the EC50 [13] of the same compound?
**A.** The EC50 was 1600 nM.

**Q.** What about the inhibition at 0.40745 µM ([14]; Botrytis cinerea, 72 h, read-out: Inhibition of growth, Dose 0.40745 uM) of the same compound?
**A.** The inhibition at 0.40745 µM was 76.8%.

**Q.** What about the inhibition at 1.22234 µM ([14]; Botrytis cinerea, 72 h, read-out: Inhibition of growth, Dose 1.22234 uM) of the same compound?
**A.** Its inhibition at 1.22234 µM is 82.5%.

**Q.** What about the Inhibition of growth ([14]; Dose 0.40745 uM) of the same compound?
**A.** Its Inhibition of growth is 76.882 and 79.9248.

**Q.** What about the Inhibition of growth ([14]; Dose 1.22234 uM) of the same compound?
**A.** Its Inhibition of growth is 82.7279 and 79.8427.
